The text below walks through data of patent US3943129A, “7-Amino-3-(1,3,4-thiadiazolinylthio-methyl) cephalosporins” (SmithKline Corporation, priority 1974, dated 1976).

Data set [1] has as its system E. coli SK 12140. The experiment in a line: In vivo ED50 in infected mice, subcutaneous. The note with it: Escherichia coli, SK12140, in Mus musculus, sc.
Data set [2] relates to E. coli SK 12140. As to the kind of experiment: Minimum inhibitory concentration (MIC). The note with it: Escherichia coli, SK12140.
Data set [3] relates to Sal. paratyphi ATCC 12176. As to the kind of experiment: Minimum inhibitory concentration (MIC). Type of data set: cell-based. The note with it: Salmonella enterica.
Data set [4] relates to S. aureus HH 127. As to the kind of experiment: Minimum inhibitory concentration (MIC). The note with it: Staphylococcus aureus, HH127.
Data set [5] has as its system S. aureus SK 23390. As to the kind of experiment: Minimum inhibitory concentration (MIC). The note with it: Staphylococcus aureus, SK23390.
For data set [6], the system named is Kleb. pneumonia. As to the kind of experiment: In vivo ED50 in infected mice, oral. The note with it: Mus musculus.
Data set [7] concerns Kleb. pneumo. SK 4200. As to the kind of experiment: In vivo ED50 in infected mice, subcutaneous. The note with it: Mus musculus, sc.
For data set [8], the system named is Strep. faecalis HH 34358. As to the kind of experiment: Minimum inhibitory concentration (MIC). The note with it: Enterococcus faecalis, HH34358.
Data set [9] has as its system Kleb. pneumo. SK 1200. As to the kind of experiment: Minimum inhibitory concentration (MIC).
The subject of data set [10] is E. coli. As to the kind of experiment: In vivo ED50 in infected mice, oral. The note with it: Escherichia coli, in Mus musculus.
The test system of data set [11] is Kleb. pneumo. SK 4200. The experiment in a line: Minimum inhibitory concentration (MIC).
The test system of data set [12] is Entero. aerogenes ATCC13048. As to the kind of experiment: Minimum inhibitory concentration (MIC). The note with it: Klebsiella aerogenes.
In data set [13] the test system is Serrantia marcescens ATCC 13880. The experiment in a line: Minimum inhibitory concentration (MIC).
In data set [14] the test system is E. coli HH 33779. The experiment in a line: Minimum inhibitory concentration (MIC). The note with it: Escherichia coli, HH33779.
For data set [15], the system named is Pseudomonas sp. HH 63. The experiment in a line: Minimum inhibitory concentration (MIC). The note with it: SP.HH63.
Data set [16] deals with Staph. aurcus villaluz. The experiment in a line: Minimum inhibitory concentration (MIC).
The subject of data set [17] is Strep. pyog. C203. As to the kind of experiment: Minimum inhibitory concentration (MIC).
Data set [18] in a line: Stability in solution. The note with it: neutral or basic pH, vs any prior art compounds that were tested. Format: physicochemical.
A short description of data set [19]: Stability to copper ion. Format: physicochemical. The note with it: vs tested prior art compounds.
Data set [20] has as its system Entero. cloaca Pa.S.L.969. The experiment in a line: Minimum inhibitory concentration (MIC).
Data set [21] deals with Shig. paradys. HH 127. The experiment in a line: Minimum inhibitory concentration (MIC).

Values after ≈ are worked out from the molar mass of the structure shown.

For the molecule `NC(C(=O)NC1C(=O)N2C(C(=O)O)=C(CSc3n[nH]c(=O)[nH]3)CSC12)c1ccc(O)cc1` (stereo not shown) [Compound IV], the ED50 in [1] was determined as 4 mg/kg; in [6], 6.2 mg/kg; in [7], 2.8 mg/kg; in data set [10], 9.5 mg/kg. Further, the MIC in [2] was found to be 6.3 µg/mL (≈ 13.2 µM); in [3] it was 6.3 µg/mL (≈ 13.2 µM); in data set [4] it was 6.3 µg/mL (≈ 13.2 µM); in data set [5] it was 6.3 µg/mL (≈ 13.2 µM); in [8], 100 µg/mL (≈ 209 µM); in data set [9] it was 12.5 µg/mL (≈ 26.1 µM). Moreover, the MIC is 6.3 µg/mL (≈ 13.2 µM) in data set [11]; 12.5 µg/mL (≈ 26.1 µM) in data set [12]; above 200 µg/mL in data set [13]; 25 µg/mL (≈ 52.2 µM) in [14]; above 200 µg/mL in data set [15]; 25 µg/mL (≈ 52.2 µM) in data set [16]. The MIC in data set [17] was 0.1 µg/mL (≈ 0.209 µM).

Take `NC(C(=O)NC1C(=O)N2C(C(=O)O)=C(CSc3n[nH]c(=O)[nH]3)CSC12)c1ccccc1` (stereo not shown) [Compound I]: the ED50 is 2.9 mg/kg in data set [1] and 7 mg/kg in [7]. In data set [18], the stability in solution entry is on record as “more stable in solution at neutral or basic pH than any prior art compounds that were tested”. Besides, the MIC in data set [2] was determined as 3.1 µg/mL (≈ 6.7 µM); in [3], 1.6 µg/mL (≈ 3.46 µM); in data set [4] it was 1.6 µg/mL (≈ 3.46 µM); in data set [5] it was 1.6 µg/mL (≈ 3.46 µM); in data set [8] it was 50 µg/mL (≈ 108 µM); in [9] it was 3.1 µg/mL (≈ 6.7 µM). Also, the MIC in [20] was 12.5 µg/mL (≈ 27 µM); in [11], 3.1 µg/mL (≈ 6.7 µM); in [12] it was 6.3 µg/mL (≈ 13.6 µM); in [13], 200 µg/mL (≈ 432 µM); in [14] it was 6.3 µg/mL (≈ 13.6 µM); in data set [15] it was above 200 µg/mL. Further, the figures for the MIC in data set [16] and in data set [17] were 12.5 µg/mL (≈ 27 µM) and 0.1 µg/mL (≈ 0.216 µM), respectively. In data set [19], the “stability to copper ion” value is recorded as “greater stability to copper ion than tested prior art compounds”.

On to `CCn1c(SCC2=C(C(=O)O)N3C(=O)C(NC(=O)C(N)c4ccccc4)C3SC2)n[nH]c1=O` (stereo not shown) [III], for which the figures for the 50% effective dose (ED50) in data set [1] and in [7] were 29 mg/kg and 92 mg/kg, respectively. For the same molecule, the MIC was found to be 12.5 µg/mL (≈ 25.5 µM) in [2]; 3.1 µg/mL (≈ 6.32 µM) in data set [3]; 3.1 µg/mL (≈ 6.32 µM) in data set [4]; 3.1 µg/mL (≈ 6.32 µM) in [5]; 25 µg/mL (≈ 51 µM) in data set [8]; 6.3 µg/mL (≈ 12.8 µM) in data set [9]. Also, the MIC was 25 µg/mL (≈ 51 µM) in [20]; 6.3 µg/mL (≈ 12.8 µM) in data set [11]; 25 µg/mL (≈ 51 µM) in data set [12]; 200 µg/mL (≈ 408 µM) in data set [13]; 12.5 µg/mL (≈ 25.5 µM) in data set [14]; above 200 µg/mL in data set [15]. The MIC in data set [16] came out at 25 µg/mL (≈ 51 µM); in [17], 0.1 µg/mL (≈ 0.204 µM).

Regarding `Cn1c(SCC2=C(C(=O)O)N3C(=O)C(NC(=O)C(N)c4ccccc4)C3SC2)n[nH]c1=O` (stereo not shown) [II], the ED50 stood at 12.5 mg/kg in data set [1] and 11.5 mg/kg in [7]. The MIC in data set [2] was 12.5 µg/mL (≈ 26.2 µM); in data set [3] it was 3.1 µg/mL (≈ 6.51 µM); in data set [4], 6.3 µg/mL (≈ 13.2 µM); in [5], 3.1 µg/mL (≈ 6.51 µM); in [8], 50 µg/mL (≈ 105 µM); in [9], 6.3 µg/mL (≈ 13.2 µM). In addition, the MIC was 50 µg/mL (≈ 105 µM) in data set [20]; 6.3 µg/mL (≈ 13.2 µM) in data set [11]; 25 µg/mL (≈ 52.5 µM) in [12]; above 200 µg/mL in data set [13]; 25 µg/mL (≈ 52.5 µM) in [14]; above 200 µg/mL in [15]. Besides, the values for the MIC in [16] and in data set [17] were 25 µg/mL (≈ 52.5 µM) and 0.1 µg/mL (≈ 0.21 µM), respectively.

Consider `O=C(Cc1cccs1)N[C@@H]1C(=O)N2C(C(=O)[O-])=C(C[n+]3ccccc3)CS[C@H]12` [S-I, cephaloridine, reference compound], for which the ED50 was 6 mg/kg in data set [1] and 7.6 mg/kg in data set [7]. The MIC turned out to be 3.1 µg/mL (≈ 7.46 µM) in data set [2]; 1.6 µg/mL (≈ 3.85 µM) in [3]; 0.4 µg/mL (≈ 0.963 µM) in [4]; 0.1 µg/mL (≈ 0.241 µM) in data set [5]; 6.3 µg/mL (≈ 15.2 µM) in data set [8]; 3.1 µg/mL (≈ 7.46 µM) in data set [9]. Further, the MIC in data set [20] was above 200 µg/mL; in data set [11] it was 3.1 µg/mL (≈ 7.46 µM); in data set [21] it was 1.6 µg/mL (≈ 3.85 µM); in data set [12], above 200 µg/mL; in [13], above 200 µg/mL; in data set [14], 6.3 µg/mL (≈ 15.2 µM). The values for the MIC in data set [15], in data set [16] and in data set [17] were above 200 µg/mL, 12.5 µg/mL (≈ 30.1 µM) and 0.1 µg/mL (≈ 0.241 µM), respectively.

Turning to `CC1=C(C(=O)O)N2C(=O)[C@@H](NC(=O)[C@H](N)c3ccccc3)[C@H]2SC1` [S-II, cephalexin, reference compound], the ED50 in data set [1] came out at 12 mg/kg; in [7], 25 mg/kg. In addition, the MIC in [2] came out at 6.3 µg/mL (≈ 18.1 µM); in [3], 3.1 µg/mL (≈ 8.92 µM); in data set [4], 3.1 µg/mL (≈ 8.92 µM); in data set [5] it was 1.6 µg/mL (≈ 4.61 µM); in data set [8], 50 µg/mL (≈ 144 µM); in data set [9], 3.1 µg/mL (≈ 8.92 µM). In addition, the MIC is 6.3 µg/mL (≈ 18.1 µM) in [20]; 6.3 µg/mL (≈ 18.1 µM) in [11]; 12.5 µg/mL (≈ 36 µM) in data set [12]; 50 µg/mL (≈ 144 µM) in data set [13]; 6.3 µg/mL (≈ 18.1 µM) in data set [14]; above 200 µg/mL in data set [15]. Further, the MIC in [16] amounted to 50 µg/mL (≈ 144 µM); in data set [17], 0.1 µg/mL (≈ 0.288 µM).

Regarding `O=C(O)C1=C(CSc2n[nH]c(=S)s2)CSC2C(NC(=O)C(O)c3ccccc3)C(=O)N12` (stereo not shown) [VII], the values for the ED50 in data set [1] and in [7] were 21.5 mg/kg and 64 mg/kg, respectively. Further, the MIC in data set [2] came to 1.6 µg/mL (≈ 3.22 µM); in data set [3] it was 0.8 µg/mL (≈ 1.61 µM); in data set [4], 0.8 µg/mL (≈ 1.61 µM); in data set [5], 0.4 µg/mL (≈ 0.805 µM); in data set [8], 25 µg/mL (≈ 50.3 µM); in data set [9], 0.8 µg/mL (≈ 1.61 µM). For the same molecule, the MIC is 1.6 µg/mL (≈ 3.22 µM) in [11]; 12.5 µg/mL (≈ 25.2 µM) in data set [12]; 200 µg/mL (≈ 403 µM) in data set [13]; 3.1 µg/mL (≈ 6.24 µM) in data set [14]; above 200 µg/mL in data set [15]; 12.5 µg/mL (≈ 25.2 µM) in [16]. Further, the MIC in [17] is 0.2 µg/mL (≈ 0.403 µM).

`Cn1c(SCC2=C(C(=O)O)N3C(=O)C(NC(=O)C(O)c4ccccc4)C3SC2)n[nH]c1=O` (stereo not shown) [VI]: the ED50 was determined as 9 mg/kg in data set [1] and 21 mg/kg in data set [7]. For the same molecule, the MIC in data set [2] worked out at 6.3 µg/mL (≈ 13.2 µM); in [3], 3.1 µg/mL (≈ 6.49 µM); in [4], 1.6 µg/mL (≈ 3.35 µM); in [5], 0.4 µg/mL (≈ 0.838 µM); in data set [8] it was 25 µg/mL (≈ 52.4 µM); in data set [9], 3.1 µg/mL (≈ 6.49 µM). Further, the MIC in [12] was 12.5 µg/mL (≈ 26.2 µM); in data set [13], above 200 µg/mL; in data set [14], 12.5 µg/mL (≈ 26.2 µM); in [15] it was above 200 µg/mL; in data set [16], 12.5 µg/mL (≈ 26.2 µM); in data set [17], 0.1 µg/mL (≈ 0.209 µM).

For the molecule `O=C(O)C1=C(CSc2n[nH]c(=O)[nH]2)CSC2C(NC(=O)C(O)c3ccccc3)C(=O)N12` (stereo not shown) [V], the results for the ED50 in [1] and in data set [7] were 4 mg/kg and 8.7 mg/kg, respectively. The MIC in [2] was 3.1 µg/mL (≈ 6.69 µM); in [3], 1.6 µg/mL (≈ 3.45 µM); in data set [4], 0.8 µg/mL (≈ 1.73 µM); in [5], 0.4 µg/mL (≈ 0.863 µM); in [8] it was 50 µg/mL (≈ 108 µM); in [9], 1.6 µg/mL (≈ 3.45 µM). Also, the MIC in [20] is 12.5 µg/mL (≈ 27 µM); in data set [11] it was 3.1 µg/mL (≈ 6.69 µM); in data set [12], 12.5 µg/mL (≈ 27 µM); in data set [13], above 200 µg/mL; in data set [14], 6.3 µg/mL (≈ 13.6 µM); in data set [15], above 200 µg/mL. The MIC in data set [16] is 25 µg/mL (≈ 53.9 µM); in [17], 0.1 µg/mL (≈ 0.216 µM).
